# Tests used:
# [1] = system: anti-single strand DNA antibodies; test: Inhibitory activity on the production of an anti-DNA-antibody (GVH disease mice, ELISA); format: in vivo, (57BL/6×DBA/2)F1; conditions: 32 mg/kg orally once a day for 8 weeks, measured 4 weeks after last cell injection, P<0.05 vs control
# Experimental: (§1) Inhibitory activity on the production of an anti-DNA-antibody and on the leakage of a proteinuria
# (§2) Six weeks old female (57BL/6×DBA/2)F1 and DBA/2 mice were used. Graft-versus-host (GVH) disease was induced in (57BL/6×DBA/2)F1mice with two injections of DBA/2 spleen cells given 5 days apart. Each injection contained 5×10^7 cells. From 3 days after the second cell injection, drug was administered orally once a day for 8 weeks.
# (§3) As an indication of autoimmune disease, 4 weeks after the last cell injection anti-single strand DNA antibodies were measured by enzyme-linkedimmunosorbent assay (ELISA) using the procedure reported by T. Fujitsu et al. (International J. Immunopharmacol, 8 897 (1986)). To assess the renal disease, 8 weeks after the last cell injection proteinuria were measured. The concentration of serum albumin in the urine was determined by the single radial immunodiffusion method using rabbit anti-mouse serum albumin antiserum. Ten mice were used per group. The activity of the compound was expressed as a % inhibition of anti-DNA antibody and proteinuria.
# [2] = system: proteinuria (serum albumin in the urine); test: Inhibitory activity on the leakage of a proteinuria (GVH disease mice, serum albumin in urine); format: in vivo, (57BL/6×DBA/2)F1; conditions: 32 mg/kg orally once a day for 8 weeks, measured 8 weeks after last cell injection, P<0.01 vs control
# Experimental: as §1, §2, §3
# [3] = system: B16 melanoma cells; test: Inhibitory activity on B16 melanoma metastases; format: in vivo, Mouse; conditions: C57BL/6 mice, day 16, P<0.01 vs control
# Experimental: Inhibitory activity on B16 melanoma metastases
# According to the experimental schedule as exemplified below, the experiment was carried out.
# Mouse B16 melanoma cells (5×10^5 cells) were inoculated intravenously to 8 weeks old female (C57BL/6) mice on day 0.
# The animals were sacrificed at day 16 and tumor colonies established in lung were counted in a dissection microscope.
# The test compound was administered orally once a day.
# Effects of test compound on tumors were assessed by the numbers of colonies compared to control. [drawing 8] 2. Test compound
structure (smiles),measurement,setting,value
"COc1cc2c3c(c1)c(O)c(C(=O)N1CCc4ccccc41)c(=O)n3CCO2 [2,3-Dihydro-7-hydroxy-9-methoxy-6-(1-indolinylcarbonyl)-5-oxo-5H-pyrido[1,2,3-de]-1,4-benzoxazine]",Inhibition (%) anti-DNA antibody,[1],86%
same,Inhibition (%) proteinuria,[2],99%
same,inhibition (%) of tumor colonies in lung,[3]; 32 mg/kg orally once a day,36%
same,inhibition (%) of tumor colonies in lung,[3]; 100 mg/kg orally once a day,59%
